Experimental findings from patent US7365069B2, “Pyrimidone derivatives” (Bexel Pharmaceuticals Inc., priority 2002, dated 2008) are described below.

One may read the inhibition as the change of the read-out against control, counted positive when it falls. High values mean a strong effect, low ones a weak effect. The melting point is the temperature of the solid-liquid transition.

In one data set the test system is IL-6. Briefly: IL-6 production in LPS-stimulated human whole blood. The data set is classed as cell-based. The following applies: LPS 4 h. As for the experimental part:
This assay determines the effect of test compounds on the production of IL-6 from human whole blood. Compounds are tested for their ability to downregulate the production of IL-6 in activated whole blood. The test compounds are pre-incubated for 15 minutes at 37° C. and then stimulated with Lipopolysaccharide (Salmonella abortus equi, 1 μg/ml) for 4 h at 37° C. in 5% CO2. The levels of Interleukin-6 are estimated using Enzyme linked Immunosorbent assay performed in a 96 well format as per the procedure of the manufacturer (Cayman Chemical, Ann Arbor, USA).

A further data set has as its system NCI-H460. Briefly: DTP human tumor cell line one-dose prescreen, NCI-H460. The data set is classed as cell-based. To be noted: 48 hours, Alamar Blue, test/control, read-out: Percentage growth Lung NCI-H460. As for the experimental part:
(§1) DTP Human Tumor Cell Line Screen
(§2) Methodology of the In Vitro Cancer Screen
(§3) The current assay utilizes a 384 well plate format and fluorescent staining technologies resulting in greater screening capacity for testing of synthetic samples.
(§4) The cell lines of the cancer-screening panel are grown in RPMI 1640 medium containing 5% fetal bovine serum and 2 mM L-glutamine. For a typical screening experiment, cells are inoculated into 96 well microtiter plates in 100 μL. After cell inoculation, the microtiter plates are incubated at 37° C., 5% CO2, 95% air and 100% relative humidity for 24 h prior to addition of experimental drugs. The cells are plated a densities of 5000 cells/well (MCF7), 1000 cells/well (NC1—H460), and 7500 cells/well (SF-268) to allow for varying doubling time of the cell lines. Each plate contains all three cell lines, a series of dilutions of standard agents, total kill wells and appropriate controls. Plates are incubated under standard conditions for 24 hours prior to addition of experimental compounds or extracts.
(§5) Addition of Experimental Agents (Pure Compounds)
(§6) Experimental compounds are solubilized in dimethyl sulfoxide (DMSO) at 400-times the desired maximum test concentration (maximum final DMSO concentration of 0.25%) and stored frozen. Compounds are then diluted with complete media with 0.1% gentamicin sulfate (5 μl of test sample in 100% DMSO is added to 565 μl of complete medium). 20 μl of this solution is then dispensed into test wells containing 50 μl of cell suspension to yield a test concentration of 1.00E-04M.
(§7) Two standard drugs, meaning that their activities against the cell lines are well documented, are tested against each cell line: NSC 19893 (5-FU) and NSC 123127 (Adriamycin).
(§8) After compound addition, plates are incubated at standard conditions for 48 hours, 10 μl/well Alamar Blue is added and the plates are incubated for an additional 4 hours. Fluorescence is measured using an excitation wavelength of 530 nm and an emission wavelength of 590 nm.
(§9) Calculation of Percent Test Cell Growth/Control (Untreated) Cell Growth (T/C)
(§10) Percent growth is calculated on a plate-by-plate basis for test wells relative to control wells. Percent Growth is expressed as the ratio of fluorescence of the test well to the average fluorescence of the control wells x 100.

Another data set relates to MCF-7. Kind of data set: DTP human tumor cell line one-dose prescreen, MCF-7. The format is cell-based. To be noted: MCF7, 48 hours, Alamar Blue, test/control, read-out: Percentage growth Breast MCF-7. As for the experimental part: as §1, §2, §3, §4, §5, §6, §7, §8, §9, §10
A general note: The colour change of resazurin is a common sign of viable cells or microbes.

The test system of another data set is SF-268. Briefly: DTP human tumor cell line one-dose prescreen, SF-268. To be noted: 48 hours, Alamar Blue, test/control, read-out: Percentage growth CNS SF-268. The format is cell-based. As for the experimental part:
as §1, §2, §3, §4, §5, §6, §7, §8, §9, §10

The target in another data set is T1, COX-2 (Homo sapiens, UniProt P35354).
T1 construct: incubation of human blood with lipopolysaccharide (LPS), which induces COX-2 production in the blood; endogenous in cells; host or cells: fresh human whole blood from volunteers, treated with aspirin and then LPS
T1 sequence (P35354 18-604): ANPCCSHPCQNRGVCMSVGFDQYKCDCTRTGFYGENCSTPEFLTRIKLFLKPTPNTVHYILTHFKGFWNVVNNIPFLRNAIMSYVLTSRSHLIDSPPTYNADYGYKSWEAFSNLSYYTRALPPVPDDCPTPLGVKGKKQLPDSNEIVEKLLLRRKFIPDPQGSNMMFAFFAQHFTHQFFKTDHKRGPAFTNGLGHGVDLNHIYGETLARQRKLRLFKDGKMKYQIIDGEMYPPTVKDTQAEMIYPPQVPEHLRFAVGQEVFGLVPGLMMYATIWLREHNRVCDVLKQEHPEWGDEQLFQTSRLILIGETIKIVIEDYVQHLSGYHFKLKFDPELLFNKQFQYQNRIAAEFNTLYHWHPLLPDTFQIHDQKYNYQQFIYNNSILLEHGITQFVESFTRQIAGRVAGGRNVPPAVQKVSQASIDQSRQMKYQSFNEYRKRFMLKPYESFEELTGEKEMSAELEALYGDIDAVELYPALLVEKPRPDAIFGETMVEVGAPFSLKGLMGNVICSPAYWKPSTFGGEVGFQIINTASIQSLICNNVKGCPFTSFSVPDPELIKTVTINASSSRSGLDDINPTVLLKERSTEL
Kind of data set: Human whole blood assay, COX-2 inhibition (PGE2 ELISA after LPS). To be noted: LPS 24 h. The format is cell-based. As for the experimental part:
In Vivo Evaluation of Cyclooxygenase-2 (COX-2) Inhibition Activity
The COX-2 inhibition activities of the compounds illustrated in the examples are determined by the following method.
Human whole blood provides a protein and cell rich milieu appropriate for the study of biochemical efficacy of anti-inflammatory compounds such as selective COX-2 inhibitors. […] This is correlating with the observation that COX-2 inhibitors have no effect on prostaglandin E2 (PGE2) production in normal blood. These inhibitors are active only after incubation of human blood with lipopolysaccharide (LPS), which induces COX-2 production in the blood.
Fresh blood is collected in tubes containing potassium EDTA by vein puncture from make volunteers. The subjects should have no apparent inflammatory conditions and not taken NSAIDs for at least 7 days prior to blood collection. Blood is treated with aspirin in vitro (10 μg/ml, at time zero) to inactivate COX-1, and then with LPS (10 μg/ml) along with test agents or vehicle. The blood is incubated for 24 h at 37° C., after which the tubes are centrifuged, the plasma is separated and stored at −80° C. (J. Pharmacol. Exp. Ther, 271, 1705, 1994; Proc. Natl. Acad. Sci. USA., 96, 7563, 1999). The plasma is assayed for PGE2 using Cayman ELISA kit as per the procedure outlined by the manufacturer (Cayman Chemicals, Ann Arbor, USA).

Another data set concerns TNF-α. Kind of data set: TNF-α production in LPS-stimulated human whole blood. The following applies: 1 μM, LPS 4 h. The format is cell-based. As for the experimental part: Tumor Necrosis Factor Alpha (TNF-α)
This assay determines the effect of test compounds on the production of TNF-α in human whole blood. TNF-α assay is carried out as described by Armin hatzelmann and Christian Schudt (J Pharm Exp Ther 297, 261, 2001). Compounds are tested for their ability to inhibit the activity of TNF-α in human whole blood. The test compounds are pre-incubated for 15 minutes at 37° C. and then stimulated with Lipopolysaccharide (Salmonella abortus equi, 1 μg/ml) for 4 h at 37° C. in 5% CO2. The levels of TNF-α are estimated using Enzyme linked Immunosorbent assay performed in a 96 well format as per the procedure of the manufacturer (Cayman Chemical, Ann Arbor, USA).

The compound `CSc1ccc(-n2c(-c3ccccc3)nc(SC)c(C#N)c2=O)cc1` [Example 3, 5-cyano-2-phenyl-4-(methylthio)-1-[4-(methylthio)phenyl]-6-oxo-1,6-dihydropyrimidine] registered a melting point of 204 to 205 °C. In the data set with IL-6 (0.25 μM), this compound displayed an inhibition at 0.25 µM of 11.3%. Also, the activity at 100 µM in the data set on NCI-H460 worked out at 30%. For the same compound, the activity at 100 µM with MCF-7 worked out at 82%. For the same compound, the activity at 100 µM in the data set with SF-268 is 90%.

The compound `CSc1ccc(-c2nc(SC)c(C(=O)O)c(=O)n2-c2ccc(C)cc2)cc1` [Example 8, 5-carboxy-2-[(4-methylthio)phenyl]-4-(methylthio)-1-(4-methylphenyl)-6-oxo-1,6-dihydropyrimidine] returned a melting point of 173 to 175 °C. On COX-2, this compound yielded an inhibition at 1 µM of 40.1%. Further, the inhibition at 1 µM in the data set with IL-6 stood at 69.4%. In addition, in the data set with NCI-H460, the activity at 100 µM was found to be 51%. For the same compound, the activity at 100 µM with MCF-7 amounted to 77%. Further, the activity at 100 µM in the data set on SF-268 is 89%.

Turning to `CSc1ccc(-c2nc(SC)c(C#N)c(=O)n2-c2ccc(Cl)cc2)cc1` [Example 18, 1-(4-chlorophenyl)-5-cyano-4-(methylthio)-2-[4-(methylthio)phenyl]-6-oxo-1,6-dihydropyrimidine], the melting point fell in the range of 203 to 205 °C. In the data set on TNF-α, this compound displayed an inhibition at 1 µM of 35.7%. The inhibition at 100 µM with IL-6 (100 μM) worked out at 44.8%. The activity at 100 µM with NCI-H460 turned out to be 98%. Moreover, the activity at 100 µM in the data set with MCF-7 amounted to 89%. In the data set with SF-268, the activity at 100 µM is 86%.

The compound `CCOc1ccc(-n2c(-c3ccc(SC)cc3)nc(SC)c(C#N)c2=O)cc1` [Example 21, 5-cyano-1-(4-ethoxyphenyl)-4-(methylthio)-2-[4-(methylthio)phenyl]-6-oxo-1,6-dihydropyrimidine] returned a melting point of 209 to 213 °C. At COX-2 (0.25 μM), this compound yielded an inhibition at 0.25 µM of 7.79%. The same compound showed an inhibition at 1 µM in the data set with TNF-α of 46.6%. The same compound showed an inhibition at 1 µM in the data set with IL-6 of 17.3%. For the same compound, the activity at 100 µM in the data set with NCI-H460 was 92%. Further, the activity at 100 µM in the data set with MCF-7 amounted to 84%. For the same compound, the activity at 100 µM in the data set on SF-268 came out at 91%.

As to `CSc1nc(-c2cccnc2)n(-c2ccc(F)cc2)c(=O)c1C#N` [Example 26, 5-cyano-1-(4-fluorophenyl)-4-(methylthio)-6-oxo-2-pyridin-3-yl-1,6-dihydropyrimidine], the melting point was in the range of 190 to 193 °C. Moreover, the inhibition at 1 µM with TNF-α turned out to be 30.6%. In the data set with NCI-H460, the activity at 100 µM was determined as 79%. In addition, in the data set with MCF-7, the activity at 100 µM amounted to 74%. The activity at 100 µM in the data set on SF-268 was 99%.

`CSc1ccc(-n2c(-c3ccncc3)nc(SC)c(C#N)c2=O)cc1` [Example 28, 5-cyano-4-(methylthio)-1-[4-(methylthio)phenyl]-6-oxo-2-pyridin-4-yl-1,6-dihydropyrimidine] returned a melting point of 227 to 229 °C. Further, the activity at 100 µM in the data set with NCI-H460 worked out at 20%. Moreover, the activity at 100 µM with MCF-7 was determined as 48%. Besides, in the data set with SF-268, the activity at 100 µM amounted to 63%.

Take `CSc1nc(-c2ccccn2)n(-c2ccc(F)cc2)c(=O)c1C#N` [Example 29, 5-cyano-1-(4-fluorophenyl)-4-(methylthio)-6-oxo-2-pyridin-2-yl-1,6-dihydropyrimidine]: the melting point lay within 221 to 227 °C. Besides, the activity at 100 µM in the data set with NCI-H460 worked out at 23%. Moreover, the activity at 100 µM with MCF-7 came to 80%. In addition, the activity at 100 µM in the data set on SF-268 worked out at 92%.

For the compound `CSc1ccc(-n2c(-c3ccccn3)nc(SC)c(C#N)c2=O)cc1` [Example 30, 5-cyano-4-(methylthio)-1-[4-(methylthio)phenyl]-6-oxo-2-pyridin-2-yl-1,6-dihydropyrimidine], the melting point is 158 to 161 °C. This compound gave an inhibition at 1 µM against COX-2 of 14.9%. Also, the activity at 100 µM with NCI-H460 turned out to be 27%. In the data set with MCF-7, the activity at 100 µM is 38%. In addition, the activity at 100 µM in the data set on SF-268 amounted to 86%.

`CCOC(=O)c1c(SC)nc(-c2ccc(SC)cc2)n(-c2ccc(C)cc2)c1=O` [Example 41, ethyl 1-(4-methylphenyl)-4-(methylthio)-2-[4-(methylthio)phenyl]-6-oxo-1,6-dihydropyrimidine-5-carboxylate]: the melting point is 153 to 155 °C. The same compound had an inhibition at 10 µM with IL-6 (10 μM) of 21.9%. The activity at 100 µM in the data set with NCI-H460 was 86%. In the data set with MCF-7, the activity at 100 µM was found to be 85%. The activity at 100 µM in the data set with SF-268 is 89%.
